The record followed here is patent publication US20200054589A1, “COMBINATION OF A PPAR AGONIST WITH A FXR AGONIST” (Genfit, priority 2017, published 2020).

For assay [1], the system named is genes involved in tissue remodeling and inflammation (αSMA (ACTA2), TIMP1, TGFB1, CCR5) in CDAA/chol fed rat livers. The experiment in a line: Hepatic gene expression analysis (quantitative PCR) in CDAA+1% cholesterol model. Format: in vivo, Wistar rats. As to conditions: liver; Percentage over the untreated CDAA + 1% cholesterol rats; 12 weeks; GFT505 3 mg/kg/d, OCA 10 mg/kg/d, or GFT505 + OCA. As for the experimental part:
(§1) The preventive effects of Elafibranor (GFT505) alone, OCA alone and the combination of both were assessed in a fibrosing NASH-model of rats fed a CDAA+1% cholesterol diet. 150-175 g male Wistar rats were fed a control (CSAA) diet, CDAA+1% cholesterol diet, or CDAA+1% cholesterol diet supplemented with Elafibranor 1, 3 and 10 mg/kg/day, OCA 10 and 30 mg/kg/day or combined drugs (Elafibranor 1, 3 and 10 mg/kg/day combined to OCA 10 mg/kg/day) for 12 weeks.
(§2) The body weight and the food intake were monitored twice per week. On the last day of treatment, rats were sacrificed after a 6 h fasting period. The liver was rapidly excised for biochemical and histological studies.
Total RNA was isolated from rat livers using RNeasy Mini Kit (Qiagen) following manufacturer's instructions. Total RNA were reverse transcribed into cDNA using M-MLV RT (Moloney Murine Leukemia Virus Reverse Transcriptase) (Invitrogen cat #28025) in 1× RT buffer (Invitrogen), 0.5 mM DTT (Invitrogen), 0.18 mM dNTPs (Promega), 200 ng pdN6 (Amersham) and 30 U of RNase inhibitor (Promega).
Quantitative PCR was then carried out using the CFX96 Touch™ Real-Time PCR Detection System (Biorad). Briefly, the PCR reactions were performed in 96-WP format in 25 μl of total volume containing 1 μL of reverse transcription reaction, 0.5 μL of reverse and forward primers (10 pmol each), and 12.5 μl of 2× iQ SYBR Green Supermix (BioRad), using the following primer sequences:
Expression levels were normalized using the expression of Rplp0 gene as a reference in samples. For each gene, the standard curves were drawn by selecting the best points (at least three points) in order to have PCR reaction efficiency close to 100% and a correlation coefficient close to 1. Expression levels were determined using the standard curve equation for both the housekeeping gene and the target gene (taking into account the specific PCR efficiency of each target gene).

In assay [2] the test system is fibrosing NASH-model of rats fed a CDAA+1% cholesterol diet. Description: Liver histology (picrosirius fibrosis surface, NASH lesions) in chronic CDAA+1% cholesterol model (12 weeks). Format: in vivo, Wistar rats. The method, then: as §1, §2
The liver slices were first fixed for 12 hours in formalin 4% solution. Then, the liver pieces were washed 30 minutes in PBS, and dehydrated in ethanol solutions (successive baths at 70, 80, 95 and 100% ethanol). The liver pieces were incubated in three different baths of Xylene (Sigma-Aldrich cat #534056), followed by two baths in liquid paraffin (56° C.). Liver pieces were then put into racks that were gently filled with Histowax® to completely cover the tissue. The paraffin blocks containing the tissue pieces were removed from the racks and stored at room temperature. The liver blocks were cut into […] slices.
Liver sections were deparaffinized, rehydrated and incubated for 15 minutes in a solution of Fast Green FCF 0.1% (Sigma-Aldrich, cat # F7258) before rinsing in a bath of 0.5% acetic acid (Panreac, cat #131008.1611). […]
A technician blinded to the source of each liver specimen performed histological examinations. […] Briefly, steatosis, lobular inflammation and hepatocytes ballooning were scored. […]
Using Quant Center software (3D Histech, including Pattern Quant and Histo Quant modules), collagen-stained areas were quantified. […] The fibrosis area was then expressed as the percentage of the collagen surface to the whole tissue per animal.

Assay [3] has the same test system. Description: Hepatic collagen content (hydroxyproline, QuickZyme) in CDAA+1% cholesterol model. Format: in vivo, Wistar rats. As to conditions: Percentage over the untreated CDAA + 1% cholesterol rats; 12 weeks; GFT505 3 mg/kg/d, OCA 10 mg/kg/d, or GFT505 + OCA; mean ± SD. As for the experimental part:
as §1, §2
The hepatic collagen content was determined using the appropriate QuickZyme kit (Total collagen assay, cat # QZB-totcol2). The assay is based on the detection of hydroxyproline, which is a non-proteinogenic amino acid mainly found in the triple helix of collagen. Thus, hydroxyproline in tissue hydrolysates can be used as a direct measure of the amount of collagen present in the tissue (without discrimination between procollagen, mature collagen and collagen degradation products). Complete hydrolysis of tissue samples in 6M HCl at 95° C. is required before dosing the hydroxyproline. The assay results in the generation of a chromogen with a maximum absorbance at 570 nm. Results are expressed as mg of collagen/g of liver.

Assay [4] relates to TGFβ1-induced human primary hepatic stellate cells (hHSC), α-SMA. The experiment in a line: α-SMA ELISA in TGFβ1-activated hHSC (in vitro model of hepatic fibrogenesis), synergy by Excess Over Bliss. Format: cell-based. The conditions noted are these: TGFβ1 1 ng/ml, 48 h. The method, then: The human primary hepatic stellate cells (hHSC) (Innoprot) were cultured in STeCM medium (ScienCell cat #5301) supplemented with 2% fetal bovine serum (FBS, ScienCell cat #0010), 1% penicillin/streptomycin (ScienCell cat #0503) and stellate cell growth supplement (SteCGS; ScienCell cat #5352). Cell-culture flasks were coated with Poly-L Lysine (Sigma cat # P4707) for a better adherence.
The FXR agonist INT-767 (CAS #1000403-03-1, Cat # HY-12434, batch #19249) was obtained commercially from Haoyuan Chemexpress. For these experiments, a checkerboard matrix was generated. […]
The level of α-SMA was measured using a Sandwich ELISA. […]
The values obtained in the αSMA ELISA assays were first transformed into percentage inhibitions over TGF-β1 control. Then, using these percentage inhibitions, EOB (Excess Over Bliss) was determined to define the synergistic effects of drug combinations. Expected Bliss additivism score (E) was firstly determined by the equation: […]
For the combinations INT-767/Elafibranor, an additional total Bliss score was calculated by summation of all EOB. […]
The significance of the observed differences between INT-767/Elafibranor over the highest single agent was determined by a student's t-test. *: p<0.05; **: p<0.01; ***: p<0.001.

Regarding `CC[C@H]1[C@@H](O)[C@@H]2[C@H](CC[C@]3(C)[C@@H]([C@H](C)CCC(=O)O)CC[C@@H]23)[C@@]2(C)CC[C@@H](O)C[C@@H]12` [OCA, 6α-ethyl chenodeoxycholic acid], in assay [1], the “CCR5 mRNA level (marker of inflammation)” value was 81% ± 28%, the “TGFβ1 mRNA level” value is given as 110% ± 23%, the “TIMP1 mRNA level” value is given as 110% ± 43% and the “α-SMA mRNA level” value is 109% ± 68%. Also, in assay [2] (CDAA/chol diet-induced NASH model), the “effects on ballooning and lobular inflammation, in words” value was “rather modest”. Further, the “effect on fibrosis development, in words (FIGS. 1-2)” value in assay [2] (CDAA/chol fed rats, 12 weeks, fibrosis surface and hepatic collagen) is reported as “does not attenuate fibrosis in a significant manner”. Also, in assay [2] (Percentage over the untreated CDAA + 1% cholesterol rats, 12 weeks in diet, GFT505 3 mg/kg/d, OCA 10 mg/kg/d, or GFT505 + OCA, mean ± SD), the Fibrosis surface is recorded as 74% ± 45%. Moreover, in assay [3], the Hepatic collagen content is 67% ± 23%.

`CC[C@H]1[C@@H](O)[C@@H]2[C@H](CC[C@]3(C)[C@@H]([C@H](C)CCOS(=O)(=O)[O-])CC[C@@H]23)[C@@]2(C)CC[C@@H](O)C[C@@H]12.[Na+]` [INT-767]: the “antifibrotic activity (α-SMA inhibition), in words” value in assay [4] (1.9 μM of INT-767 alone) was “does not show any antifibrotic activity”. Further, in assay [4] (Homo sapiens, highest dose of INT-767 tested, 30 μM, read-out: α-SMA production inhibition over TGFβ1 control), the inhibition at 30 µM stood at 13%.
